# Laboratory results as given in PubChem BioAssay (NCI).
#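 Method: 48-hour compound exposure of cells in 96-well plates, five concentrations, linear interpolation of endpoints. GI50 marks 50% less growth. TGI marks complete inhibition of growth.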
# What was measured:
# Test in all cases: NCI tumour cell line growth inhibition, 48 h
# [1] = test system: A498 renal
# [2] = test system: A549 NSCLC
# [3] = test system: ACHN renal
# [4] = test system: BT-549 breast
# [5] = test system: CAKI-1 renal
# [6] = test system: CCRF-CEM leukemia
# [7] = test system: COLO 205 colon
# [8] = test system: DU-145 prostate
# [9] = test system: EKVX NSCLC
# [10] = test system: HCC-2998 colon
# [11] = test system: HCT-15 colon
# [12] = test system: HOP-62 NSCLC
# [13] = test system: HOP-92 NSCLC
# [14] = test system: HS 578T breast
# [15] = test system: HT29 colon
# [16] = test system: K-562 leukemia
# [17] = test system: KM12 colon
# [18] = test system: LOX IMVI melanoma
# [19] = test system: MALME-3M melanoma
# [20] = test system: MCF7 breast
# [21] = test system: MDA-MB-231 breast
# [22] = test system: MDA-MB-435
# [23] = test system: MOLT-4 leukemia
# [24] = test system: NCI-H460 lung
# [25] = test system: NCI-H522 lung
# [26] = test system: NCI/ADR-RES ovarian
# [27] = test system: OVCAR-5 ovarian
# [28] = test system: OVCAR-8 ovarian
# [29] = test system: PC-3 prostate
# [30] = test system: RPMI-8226 leukemia
# [31] = test system: RXF 393 renal
# [32] = test system: SF-268 CNS
# [33] = test system: SF-539 CNS
# [34] = test system: SK-MEL-2 melanoma
# [35] = test system: SK-MEL-28 melanoma
# [36] = test system: SK-MEL-5 melanoma
# [37] = test system: SN12C renal
# [38] = test system: SNB-19 CNS
# [39] = test system: SR leukemia
# [40] = test system: SW-620 colon
# [41] = test system: T-47D breast
# [42] = test system: TK-10 renal
# [43] = test system: U251 CNS
# [44] = test system: UACC-257 melanoma
# [45] = test system: UACC-62 melanoma
# [46] = test system: 786-0 renal
# [47] = test system: HCT-116 colon
# [48] = test system: HL-60(TB) leukemia
# [49] = test system: M14 melanoma
# [50] = test system: NCI-H226 lung
# [51] = test system: NCI-H23 lung
# [52] = test system: OVCAR-3 ovarian
# [53] = test system: OVCAR-4 ovarian
# [54] = test system: SF-295 CNS
# [55] = test system: SK-OV-3 ovarian
# [56] = test system: SNB-75 CNS
# [57] = test system: UO-31 renal
# [58] = test system: IGROV1 ovarian
smiles,measurement,setting,value
CC[C@H](Nc1nc(N)nc(N)c1Cl)c1nc2cccc(NCc3ccc(C(=O)NO)cc3)c2c(=O)n1-c1ccccc1,GI50,[1],1.34 µM
same,TGI,[1],2.71 µM
same,GI50,[2],2.33 µM
same,TGI,[2],5.73 µM
same,GI50,[3],1.98 µM
same,TGI,[3],4.2 µM
same,GI50,[4],2.13 µM
same,TGI,[4],5.69 µM
same,GI50,[5],2 µM
same,TGI,[5],5 µM
same,GI50,[6],1.35 µM
same,TGI,[6],> 100 µM
same,GI50,[7],2.24 µM
same,TGI,[7],5.73 µM
same,GI50,[8],2.91 µM
same,TGI,[8],10.5 µM
same,GI50,[9],1.75 µM
same,TGI,[9],3.78 µM
same,GI50,[10],1.62 µM
same,TGI,[10],3.22 µM
same,GI50,[11],2.02 µM
same,TGI,[11],4.75 µM
same,GI50,[12],1.67 µM
same,TGI,[12],4.04 µM
same,GI50,[13],1.26 µM
same,TGI,[13],2.81 µM
same,GI50,[14],2.62 µM
same,TGI,[14],10.9 µM
same,GI50,[15],2.01 µM
same,TGI,[15],5.27 µM
same,GI50,[16],1.78 µM
same,TGI,[16],> 100 µM
same,GI50,[17],2.08 µM
same,TGI,[17],4.62 µM
same,GI50,[18],1.73 µM
same,TGI,[18],3.17 µM
same,GI50,[19],1.36 µM
same,TGI,[19],4.4 µM
same,GI50,[20],2.25 µM
same,TGI,[20],7.2 µM
same,GI50,[21],1.55 µM
same,TGI,[21],3.65 µM
same,GI50,[22],1.7 µM
same,TGI,[22],3.4 µM
same,GI50,[23],1.47 µM
same,TGI,[23],16.6 µM
same,GI50,[24],1.94 µM
same,TGI,[24],4.43 µM
same,GI50,[25],1.29 µM
same,TGI,[25],3.6 µM
same,GI50,[26],12.4 µM
same,TGI,[26],> 100 µM
same,GI50,[27],1.61 µM
same,TGI,[27],3.36 µM
same,GI50,[28],1.69 µM
same,TGI,[28],5.05 µM
same,GI50,[29],1.53 µM
same,TGI,[29],3.7 µM
same,GI50,[30],2.15 µM
same,TGI,[30],5.92 µM
same,GI50,[31],0.403 µM
same,TGI,[31],1.75 µM
same,GI50,[32],1.66 µM
same,TGI,[32],3.69 µM
same,GI50,[33],1.64 µM
same,TGI,[33],3.06 µM
same,GI50,[34],2.02 µM
same,TGI,[34],5.27 µM
same,GI50,[35],1.55 µM
same,TGI,[35],3.21 µM
same,GI50,[36],1.75 µM
same,TGI,[36],3.22 µM
same,GI50,[37],1.78 µM
same,TGI,[37],4.78 µM
same,GI50,[38],1.7 µM
same,TGI,[38],4.18 µM
same,GI50,[39],0.579 µM
same,TGI,[39],> 100 µM
same,GI50,[40],1.63 µM
same,TGI,[40],4.71 µM
same,GI50,[41],2.15 µM
same,TGI,[41],10.7 µM
same,GI50,[42],2.02 µM
same,TGI,[42],6.63 µM
same,GI50,[43],1.51 µM
same,TGI,[43],3.08 µM
same,GI50,[44],1.94 µM
same,TGI,[44],4.92 µM
same,GI50,[45],1.41 µM
same,TGI,[45],2.81 µM
CC(=N/NC(=S)Nc1c(C)n(C)n(-c2ccccc2)c1=O)/C(C)=N\NC(=S)Nc1c(C)n(C)n(-c2ccccc2)c1=O,TGI,[46],> 100 µM
same,TGI,[1],> 100 µM
same,TGI,[2],> 100 µM
same,TGI,[3],> 100 µM
same,TGI,[4],> 100 µM
same,TGI,[5],> 100 µM
same,TGI,[7],> 100 µM
same,TGI,[8],> 100 µM
same,TGI,[9],> 100 µM
same,TGI,[10],> 100 µM
same,TGI,[47],> 100 µM
same,TGI,[11],> 100 µM
same,TGI,[48],> 100 µM
same,TGI,[12],> 100 µM
same,TGI,[13],> 100 µM
same,TGI,[14],> 100 µM
same,TGI,[15],> 100 µM
same,TGI,[17],> 100 µM
same,TGI,[49],> 100 µM
same,TGI,[19],> 100 µM
same,TGI,[21],> 100 µM
same,TGI,[22],> 100 µM
same,TGI,[23],> 100 µM
same,TGI,[50],> 100 µM
same,TGI,[51],> 100 µM
same,TGI,[24],> 100 µM
same,TGI,[25],> 100 µM
same,TGI,[26],> 100 µM
same,TGI,[52],> 100 µM
same,TGI,[53],> 100 µM
same,TGI,[27],> 100 µM
same,TGI,[28],> 100 µM
same,TGI,[29],> 100 µM
same,TGI,[31],> 100 µM
same,TGI,[32],> 100 µM
same,TGI,[54],> 100 µM
same,TGI,[33],> 100 µM
same,TGI,[34],> 100 µM
same,TGI,[36],> 100 µM
same,TGI,[55],> 100 µM
same,TGI,[38],> 100 µM
same,TGI,[56],> 100 µM
same,TGI,[39],> 100 µM
same,TGI,[40],> 100 µM
same,TGI,[41],> 100 µM
same,TGI,[42],> 100 µM
same,TGI,[43],> 100 µM
same,TGI,[44],> 100 µM
same,TGI,[45],> 100 µM
same,TGI,[57],> 100 µM
Cc1cc(NC(=O)C(=O)Cc2cnc3ccccc3n2)c(S(=O)(=O)O)cc1Cl,TGI,[46],> 100 µM
same,TGI,[1],> 100 µM
same,TGI,[2],> 100 µM
same,TGI,[3],> 100 µM
same,TGI,[4],> 100 µM
same,TGI,[5],> 100 µM
same,TGI,[6],> 100 µM
same,TGI,[7],> 100 µM
same,TGI,[8],> 100 µM
same,TGI,[9],> 100 µM
same,TGI,[10],> 100 µM
same,TGI,[47],> 100 µM
same,TGI,[11],> 100 µM
same,TGI,[48],> 100 µM
same,TGI,[13],> 100 µM
same,TGI,[14],> 100 µM
same,TGI,[15],> 100 µM
same,TGI,[58],> 100 µM
same,TGI,[16],> 100 µM
same,TGI,[17],> 100 µM
same,TGI,[18],> 100 µM
same,TGI,[49],> 100 µM
same,TGI,[19],> 100 µM
same,TGI,[20],> 100 µM
same,TGI,[21],> 100 µM
same,TGI,[22],> 100 µM
same,TGI,[23],> 100 µM
same,TGI,[50],> 100 µM
same,TGI,[51],> 100 µM
same,TGI,[24],> 100 µM
same,TGI,[25],> 100 µM
same,TGI,[26],> 100 µM
same,TGI,[52],> 100 µM
same,TGI,[53],> 100 µM
same,TGI,[27],> 100 µM
same,TGI,[28],> 100 µM
same,TGI,[29],> 100 µM
same,TGI,[30],> 100 µM
same,TGI,[32],> 100 µM
same,TGI,[54],> 100 µM
same,TGI,[33],> 100 µM
same,TGI,[34],> 100 µM
same,TGI,[35],> 100 µM
same,TGI,[36],> 100 µM
same,TGI,[55],> 100 µM
same,TGI,[37],> 100 µM
same,TGI,[38],> 100 µM
same,TGI,[56],> 100 µM
same,TGI,[40],> 100 µM
same,TGI,[41],> 100 µM
same,TGI,[42],> 100 µM
same,TGI,[43],> 100 µM
same,TGI,[44],> 100 µM
same,TGI,[45],> 100 µM
same,TGI,[57],> 100 µM
